The source made the active and inactive calls. A value given as a limit tells only on which side of the number the result lay.

Nine compounds from ChEMBL document CHEMBL1201862, “PubChem BioAssay data set” (2004) can be followed below.

Experiment [1] concerns the target T1, Replicative DNA helicase DnaB (Mycobacterium tuberculosis, UniProt P9WMR3).
T1 sequence (P9WMR3 whole entry): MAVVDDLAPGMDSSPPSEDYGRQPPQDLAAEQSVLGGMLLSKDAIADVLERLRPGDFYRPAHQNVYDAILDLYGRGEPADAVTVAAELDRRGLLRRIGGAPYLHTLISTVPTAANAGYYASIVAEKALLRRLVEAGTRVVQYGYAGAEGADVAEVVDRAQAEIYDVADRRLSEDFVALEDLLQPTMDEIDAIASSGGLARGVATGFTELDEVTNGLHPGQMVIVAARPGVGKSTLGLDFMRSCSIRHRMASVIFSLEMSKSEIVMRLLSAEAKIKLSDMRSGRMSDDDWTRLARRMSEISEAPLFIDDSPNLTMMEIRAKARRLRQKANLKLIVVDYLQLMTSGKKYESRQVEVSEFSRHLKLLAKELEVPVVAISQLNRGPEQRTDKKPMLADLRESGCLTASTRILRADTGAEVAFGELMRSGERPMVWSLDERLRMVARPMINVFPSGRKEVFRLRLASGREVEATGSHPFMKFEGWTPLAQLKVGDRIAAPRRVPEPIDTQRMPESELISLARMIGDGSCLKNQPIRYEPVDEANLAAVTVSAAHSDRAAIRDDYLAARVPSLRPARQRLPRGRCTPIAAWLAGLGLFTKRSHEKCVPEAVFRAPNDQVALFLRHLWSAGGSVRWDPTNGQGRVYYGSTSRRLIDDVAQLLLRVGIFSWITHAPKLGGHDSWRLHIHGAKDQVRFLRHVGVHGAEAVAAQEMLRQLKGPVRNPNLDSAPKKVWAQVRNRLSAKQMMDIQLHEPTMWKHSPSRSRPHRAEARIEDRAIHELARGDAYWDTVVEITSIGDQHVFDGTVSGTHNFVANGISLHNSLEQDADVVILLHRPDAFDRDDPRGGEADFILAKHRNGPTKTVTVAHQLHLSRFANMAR
Nature of the experiment: DnaB intein splicing inhibitors, dose response, biochemical, cell-free fluorescence (AID 449749). The format is functional.

For experiment [2], the target named is T2, Protein RecA (Mycobacterium tuberculosis, UniProt P9WHJ3).
T2 sequence (P9WHJ3 whole entry): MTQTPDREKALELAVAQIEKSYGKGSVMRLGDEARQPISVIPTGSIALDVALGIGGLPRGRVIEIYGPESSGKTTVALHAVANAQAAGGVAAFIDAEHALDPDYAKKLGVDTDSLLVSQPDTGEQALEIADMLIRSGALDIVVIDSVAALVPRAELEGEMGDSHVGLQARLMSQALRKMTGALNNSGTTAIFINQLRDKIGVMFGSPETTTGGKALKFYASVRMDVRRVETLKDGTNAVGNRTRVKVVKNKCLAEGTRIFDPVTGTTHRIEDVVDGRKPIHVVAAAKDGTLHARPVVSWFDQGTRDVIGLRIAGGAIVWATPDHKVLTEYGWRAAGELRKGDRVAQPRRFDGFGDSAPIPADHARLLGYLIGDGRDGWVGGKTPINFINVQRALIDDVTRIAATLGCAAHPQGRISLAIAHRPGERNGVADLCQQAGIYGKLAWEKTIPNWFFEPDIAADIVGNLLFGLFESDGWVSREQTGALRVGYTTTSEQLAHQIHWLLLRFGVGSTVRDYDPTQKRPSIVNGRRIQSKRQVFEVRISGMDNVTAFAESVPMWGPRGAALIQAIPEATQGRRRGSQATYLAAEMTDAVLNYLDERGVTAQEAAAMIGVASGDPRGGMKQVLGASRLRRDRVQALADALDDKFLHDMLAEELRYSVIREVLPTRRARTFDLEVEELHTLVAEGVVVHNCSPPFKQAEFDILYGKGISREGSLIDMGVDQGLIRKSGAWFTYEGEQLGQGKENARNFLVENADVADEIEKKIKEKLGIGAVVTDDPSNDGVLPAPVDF
Nature of the experiment: Fluorescence Cell-Free Homogeneous Dose Retest to Identify Inhibitors of RecA-Intein Splicing Activity. [Related pubchem assays (depositor defined):AID2097, AID2223, AID489010, AID492950]. Format: functional.

The target in experiment [3] is Genome polyprotein (dengue virus type 2, UniProt P29990). Nature of the experiment: flavivirus cap methylation enzyme inhibition – biochemical, confirmation dose response, primary screen (AID 588689). Format: functional.
For experiment [4], the target named is T3, Sentrin-specific protease 8 (Homo sapiens, UniProt Q96LD8).
T3 sequence (Q96LD8 whole entry): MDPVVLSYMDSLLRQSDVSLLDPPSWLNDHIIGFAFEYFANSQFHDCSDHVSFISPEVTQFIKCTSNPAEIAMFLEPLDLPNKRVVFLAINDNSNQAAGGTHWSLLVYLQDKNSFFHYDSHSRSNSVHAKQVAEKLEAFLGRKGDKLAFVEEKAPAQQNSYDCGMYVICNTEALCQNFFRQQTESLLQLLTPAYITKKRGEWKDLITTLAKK
Format: functional.

Experiment [5] has as its target T3, Sentrin-specific protease 8. The format is functional. The source holds these as a separate data set.
The target in experiment [6] is Cytochrome P450 2D6 (Homo sapiens, UniProt P10635).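 Further: CYP2D6 member of a cytochrome P450 panel assay.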
Experiment [7] has as its target T4, Cytochrome P450 1A2 (Homo sapiens, UniProt P05177).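 Further: PubChem cytochrome P450 panel assay, CYP1A2 panel member.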
T4 sequence (P05177 whole entry): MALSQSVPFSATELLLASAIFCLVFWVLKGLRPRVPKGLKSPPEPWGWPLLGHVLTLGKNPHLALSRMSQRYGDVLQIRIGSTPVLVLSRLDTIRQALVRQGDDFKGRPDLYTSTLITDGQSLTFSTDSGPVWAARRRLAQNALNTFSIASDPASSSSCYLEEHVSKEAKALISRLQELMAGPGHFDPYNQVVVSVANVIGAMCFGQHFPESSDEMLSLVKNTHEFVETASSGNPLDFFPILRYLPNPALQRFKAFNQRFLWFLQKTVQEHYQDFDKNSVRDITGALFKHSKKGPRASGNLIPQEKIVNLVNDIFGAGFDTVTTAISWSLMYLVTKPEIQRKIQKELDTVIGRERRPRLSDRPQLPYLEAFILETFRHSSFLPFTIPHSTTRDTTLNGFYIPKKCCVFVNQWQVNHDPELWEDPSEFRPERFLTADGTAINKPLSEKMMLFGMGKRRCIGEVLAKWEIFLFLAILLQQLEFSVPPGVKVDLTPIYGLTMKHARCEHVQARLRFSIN

The nature of experiment [8]: cells. The format is functional, cell-based.
Experiment [9] addresses T5, Trace amine-associated receptor 1 (Homo sapiens, UniProt Q96RJ0).
T5 sequence (Q96RJ0 whole entry): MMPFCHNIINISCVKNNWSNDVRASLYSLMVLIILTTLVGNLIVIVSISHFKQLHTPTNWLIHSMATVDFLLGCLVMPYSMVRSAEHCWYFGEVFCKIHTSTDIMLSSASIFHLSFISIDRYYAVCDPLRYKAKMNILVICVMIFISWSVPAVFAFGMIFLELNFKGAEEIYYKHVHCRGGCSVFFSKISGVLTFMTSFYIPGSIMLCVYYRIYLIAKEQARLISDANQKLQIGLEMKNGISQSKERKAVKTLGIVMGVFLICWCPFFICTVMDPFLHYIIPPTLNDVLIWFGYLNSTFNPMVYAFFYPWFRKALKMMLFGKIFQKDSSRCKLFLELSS
Put plainly: Fluorescence-based cell-based high throughput dose response assay to identify agonists of the human trace amine associated receptor 1 (TAAR1). Format: functional.

The target of experiment [10] is T5, Trace amine-associated receptor 1. Put plainly: Counterscreen for agonists of the human trace amine associated receptor 1 (hTAAR1): Fluorescence-based cell-based high throughput dose response assay to identify hTAAR1 agonist that also desensitize TAAR1 receptor response. Format: functional. Background: A counterscreen serves to expose hits that act by an unwanted route or on another target.

Experiment [11] in a line: cells. The format is functional, cell-based. This is another data set of the same source.
Experiment [12] concerns the target Paired box protein Pax-8 (Homo sapiens, UniProt Q06710). Nature of the experiment: PAX8 transcriptional activity inhibition in RMG-I – RMG-I cells, luciferase, cherry-pick, dose response (AID 687027).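 Further: luciferase reporter driven by Pax8 target thyroperoxidase promoter measured by SteadyGlo luminescence.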 The format is functional, cell-based.
Experiment [13] in a line: general cell-killing toxicity readout – plate reader, dry powder samples, cytotoxicity control for PAX8 inhibitor project, dose response (AID 743021). The format is functional, cell-based.
The target of experiment [14] is T6, fMet-Leu-Phe receptor (Homo sapiens, UniProt P21462).
T6 sequence (P21462 whole entry): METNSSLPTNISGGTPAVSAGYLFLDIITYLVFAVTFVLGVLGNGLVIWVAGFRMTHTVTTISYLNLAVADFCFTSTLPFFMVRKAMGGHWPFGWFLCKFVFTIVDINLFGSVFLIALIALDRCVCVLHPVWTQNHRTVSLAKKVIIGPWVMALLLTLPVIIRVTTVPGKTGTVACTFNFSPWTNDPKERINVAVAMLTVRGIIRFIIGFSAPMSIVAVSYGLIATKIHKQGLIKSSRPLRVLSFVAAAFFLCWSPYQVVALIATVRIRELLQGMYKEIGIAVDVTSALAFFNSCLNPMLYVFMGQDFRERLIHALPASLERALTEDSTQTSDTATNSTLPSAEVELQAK
Put plainly: formyl peptide receptor binders – dose response (AID 519). The format is functional.

In experiment [15] the target is Nonstructural protein 1 (Influenza A virus, UniProt Q194T2). The format is functional, Influenza A virus (A/California/07/2009(H1N1)).
Experiment [16] concerns INS1. Nature of the experiment: INS-1E survival protection against cytokine death – cell-based, luminescence, retest, dose response (AID 449756).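 Further: cell death triggered by IL-1 beta plus TNF-alpha plus IFN-gamma mixture; protective hits raise ATP signal compared with cytokine alone wells.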 The format is functional. To be noted: Rattus norvegicus.
Experiment [17] is described as follows: viability loss in HeLa cells – cytotoxicity control for MgcRacGAP inhibitor project, dose response (AID 624300). The format is functional.
For experiment [18], the target named is T7, Rac GTPase-activating protein 1 (Homo sapiens, UniProt Q9H0H5).
T7 sequence (Q9H0H5 whole entry): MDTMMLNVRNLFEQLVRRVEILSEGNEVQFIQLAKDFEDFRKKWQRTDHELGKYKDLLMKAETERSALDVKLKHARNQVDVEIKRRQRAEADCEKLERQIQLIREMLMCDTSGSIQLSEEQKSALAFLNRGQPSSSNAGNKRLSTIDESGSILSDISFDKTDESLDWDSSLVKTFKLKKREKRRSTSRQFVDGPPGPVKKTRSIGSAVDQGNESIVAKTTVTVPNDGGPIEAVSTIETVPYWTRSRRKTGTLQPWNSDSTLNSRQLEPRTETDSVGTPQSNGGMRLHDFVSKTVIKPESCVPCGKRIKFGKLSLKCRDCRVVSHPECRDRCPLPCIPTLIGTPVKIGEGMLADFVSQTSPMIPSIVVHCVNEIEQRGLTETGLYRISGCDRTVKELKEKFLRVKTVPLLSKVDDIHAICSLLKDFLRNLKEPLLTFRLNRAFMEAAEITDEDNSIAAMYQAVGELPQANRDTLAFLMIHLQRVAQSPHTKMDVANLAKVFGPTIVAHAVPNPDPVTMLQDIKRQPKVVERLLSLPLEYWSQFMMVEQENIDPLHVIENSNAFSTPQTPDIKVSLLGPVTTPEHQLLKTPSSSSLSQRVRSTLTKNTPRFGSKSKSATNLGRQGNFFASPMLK
Put plainly: blockers of MgcRacGAP-driven Rac1 GTP hydrolysis – biochemical, ADP Hunter fluorescence, primary and confirmatory, confirmation (AID 624330). The format is functional.

Nonstructural protein 1, sequence (Q194T2 whole entry): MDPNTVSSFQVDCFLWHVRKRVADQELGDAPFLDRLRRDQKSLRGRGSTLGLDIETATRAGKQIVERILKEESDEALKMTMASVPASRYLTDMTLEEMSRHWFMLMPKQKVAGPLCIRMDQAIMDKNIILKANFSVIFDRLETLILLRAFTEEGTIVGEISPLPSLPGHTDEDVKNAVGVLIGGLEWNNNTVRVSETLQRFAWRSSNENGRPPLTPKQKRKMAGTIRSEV
Paired box protein Pax-8, sequence (Q06710 whole entry): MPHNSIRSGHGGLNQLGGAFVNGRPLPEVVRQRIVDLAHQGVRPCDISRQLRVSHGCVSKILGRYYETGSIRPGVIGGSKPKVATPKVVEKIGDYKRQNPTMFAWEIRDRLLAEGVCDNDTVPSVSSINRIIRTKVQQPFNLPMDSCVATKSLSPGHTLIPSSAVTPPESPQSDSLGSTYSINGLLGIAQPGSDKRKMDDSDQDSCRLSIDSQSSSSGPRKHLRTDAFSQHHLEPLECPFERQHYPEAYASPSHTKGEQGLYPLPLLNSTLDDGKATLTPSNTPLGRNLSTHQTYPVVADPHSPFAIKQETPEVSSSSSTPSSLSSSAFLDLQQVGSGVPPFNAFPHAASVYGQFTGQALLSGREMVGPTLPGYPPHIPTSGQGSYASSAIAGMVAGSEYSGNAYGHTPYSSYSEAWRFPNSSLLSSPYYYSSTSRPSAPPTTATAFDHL
Genome polyprotein, sequence (P29990 2492-3391 limits assumed): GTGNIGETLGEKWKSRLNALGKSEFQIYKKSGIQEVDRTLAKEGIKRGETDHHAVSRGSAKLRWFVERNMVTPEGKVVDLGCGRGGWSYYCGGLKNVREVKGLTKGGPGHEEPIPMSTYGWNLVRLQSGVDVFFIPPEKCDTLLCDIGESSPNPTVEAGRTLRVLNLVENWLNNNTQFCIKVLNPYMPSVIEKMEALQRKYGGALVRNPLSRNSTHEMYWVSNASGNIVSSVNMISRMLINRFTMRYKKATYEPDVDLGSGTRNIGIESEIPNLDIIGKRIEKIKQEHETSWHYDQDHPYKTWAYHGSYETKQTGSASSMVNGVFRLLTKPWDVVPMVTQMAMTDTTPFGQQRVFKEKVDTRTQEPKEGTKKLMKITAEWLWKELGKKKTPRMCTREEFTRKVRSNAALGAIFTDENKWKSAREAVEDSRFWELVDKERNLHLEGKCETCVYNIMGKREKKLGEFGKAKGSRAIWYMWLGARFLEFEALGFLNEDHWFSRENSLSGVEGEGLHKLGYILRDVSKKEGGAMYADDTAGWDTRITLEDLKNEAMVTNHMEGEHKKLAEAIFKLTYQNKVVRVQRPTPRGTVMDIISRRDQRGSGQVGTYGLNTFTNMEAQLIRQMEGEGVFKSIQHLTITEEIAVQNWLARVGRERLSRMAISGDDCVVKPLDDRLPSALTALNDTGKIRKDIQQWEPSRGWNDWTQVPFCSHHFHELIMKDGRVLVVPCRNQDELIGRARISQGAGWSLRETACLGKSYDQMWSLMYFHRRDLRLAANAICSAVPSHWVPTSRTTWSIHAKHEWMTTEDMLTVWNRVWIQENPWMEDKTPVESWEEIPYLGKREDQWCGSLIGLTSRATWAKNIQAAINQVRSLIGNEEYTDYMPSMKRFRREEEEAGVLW
Cytochrome P450 2D6, sequence (P10635 whole entry): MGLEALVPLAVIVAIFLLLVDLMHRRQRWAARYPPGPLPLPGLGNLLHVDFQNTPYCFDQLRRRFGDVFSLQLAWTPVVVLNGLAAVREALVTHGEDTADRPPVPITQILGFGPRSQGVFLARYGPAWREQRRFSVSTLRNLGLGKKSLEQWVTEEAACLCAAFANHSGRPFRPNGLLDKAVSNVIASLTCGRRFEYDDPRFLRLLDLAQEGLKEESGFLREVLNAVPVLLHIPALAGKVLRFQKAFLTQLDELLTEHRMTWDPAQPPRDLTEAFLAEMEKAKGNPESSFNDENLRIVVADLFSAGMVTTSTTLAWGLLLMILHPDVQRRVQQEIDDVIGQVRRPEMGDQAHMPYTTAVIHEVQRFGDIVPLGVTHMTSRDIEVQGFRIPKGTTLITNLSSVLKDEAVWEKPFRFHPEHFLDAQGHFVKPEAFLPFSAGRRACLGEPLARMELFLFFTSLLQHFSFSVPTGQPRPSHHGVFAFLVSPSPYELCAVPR

Take `Cc1nn(-c2ccc(F)cc2)c(O)c1C(c1cccc(O)c1)c1c(C)[nH]n(-c2ccc(F)cc2)c1=O` (centres undefined): the AC50 (as a rule, the concentration at which the activity in the assay is half-maximal) is 1.06 µM (active) in experiment [1], 28.2 µM (inconclusive) in experiment [6] and 25.1 µM (inconclusive) in experiment [7]. For the same compound, in [2], the EC50 (commonly the concentration giving half of the maximal effect) was 0.856 µM (active). In addition, the IC50 – broadly, the midpoint of a concentration-inhibition curve – in experiment [3] is 55.5 µM (active); in experiment [4], 14.6 µM (active); in experiment [5], 12.2 µM (active).
With `O=C(O)/C=C/C(=O)NCCCc1ccccc1`, the IC50 in [8] and in experiment [10] was > 29.9 µM (inactive) in each case. For the same compound, the EC50 was 7.06 µM (active) in experiment [9] and > 29.9 µM (inactive) in experiment [11].
Consider `O=C(Nc1ccc(C(F)(F)F)cc1)N1C[C@@H]2N[C@H](C1)[C@H]2c1ccc(-c2cccc(F)c2)cc1`, for which the AC50 in [12] was 13.2 µM (active); in experiment [13], 27.9 µM (active).
Consider `CCOC(=O)c1c(C)[nH]c(/C=N/c2ccccc2)c1O`, for which the Ki (commonly a measure of affinity in units of concentration, obtained from inhibition or displacement) in experiment [14] is > 66.7 µM (inactive).
With `CC1=C(C#N)C(c2ccc3ncccc3c2)C(C#N)=C(C)N1`, the Ki in experiment [14] is > 66.7 µM (inactive).
Regarding `Cc1ccn2c(CNCC3OCCc4ccccc43)c(C(=O)N3CCCCCC3)nc2c1` (centres undefined), the IC50 is > 29.9 µM (inactive) in experiment [8] and 9.37 µM (active) in [10]. The values for the EC50 in experiment [9] and in [11] were 4.98 µM (active) and > 29.9 µM (inactive), respectively.
With `COc1cc(N/N=C/c2ccccc2O)ncn1`, the IC50 in experiment [15] was 5.73 µM (active); in experiment [8] it was > 29.9 µM (inactive); in experiment [10], 6.63 µM (active). Moreover, in experiment [16], the AC50 is 3.67 µM (active). Further, the EC50 in [9] and in experiment [11] was > 29.9 µM (inactive) in each case.
In the case of `COc1ccccc1-n1c(/C=C/c2ccc(O)cc2)nc2ccccc2c1=O`, the CC50 (usually the concentration at which the toxic effect on the cells reaches its halfway point) in experiment [17] is 100 µM (active). In addition, the IC50 in [18] is 106 µM (active).
`Oc1ccc(-c2[nH]ncc2-c2ccc(Cl)cc2)c(O)c1`: the CC50 in experiment [17] is 100 µM (active). The IC50 in experiment [18] was 90.8 µM (active).
